In patent US12358859B2, “Series of compounds for treatment of skin diseases and other conditions” (Unigen, Inc., priority 2018, dated 2025):

Legend:
[1] = tested on: reconstructed skin (keratinocytes and melanocytes); experiment: Reconstructed human skin model (Melanoderm); assay type: cell-based; conditions: for significant whitening of melanocytes observed as early as: after the beginning of the experiment (data not shown); for alterations of cell morphology / whitening effects on skin melanocytes: applied topically for 15 days; for whitening effects on melanocytes: topical, photographs after 14 days; for toxicity on reconstructed skin: at 0.05%
Experimental: The skin whitening effects of test compounds were studied using a reconstructed skin model, Melanoderm™ provided by MatTek Corp. (Ashland, Mass.) according to the manufacturer's specifications. Briefly, normal human epidermal keratinocytes and normal human melanocytes derived from dark skin donors were co-cultured on a surface of collagen-coated membrane to form multi-layered, highly differentiated skin tissue (MEL-300-B). The tissues were maintained in the CO2, incubator at 37° C. The apical surfaces of the reconstructed skin (9 mm in diameter) were exposed to air whereas the bottom surfaces remained in contact with 5 mL of maintenance medium, containing skin differentiating factors (EPI-100-NNM-113). Test compounds were formulated in 80% propylene glycol as follows: 10 mg of each test compound was dissolved in DMSO and diluted with 80% propylene glycol (1,2-propanediol, Sigma-Aldrich) to stock concentrations. The compounds were then sterilized by passing through 0.2 um filter and diluted in sterile water/propylene glycol to final test concentrations in 0.5% DMSO, 80% propylene glycol. In addition, the following controls were used: 80% propylene glycol with 0.5% DMSO, and 1% kojic acid in 80% propylene glycol.
‘Test compounds were applied to the apical surface of the tissues as follows: 25 μl of each test compound, 25 μl of 80% propylene glycol (vehicle control), and 25 μl of 1% kojic acid (positive control). The samples were reapplied every other day for 14 days. All the samples were tested in duplicate. At the end of the experiment microscopic images were taken.
The potential skin-whitening properties of test compounds were explored in a reconstructed skin model. The model consists of normal, human-derived epidermal keratinocytes and melanocytes, which have been co-cultured to form a multilayered, highly differentiated human epidermis. In this study the melanocytes were obtained from a highly pigmented donor.
Different concentrations of test compounds, 80% propylene glycol (the vehicle control), or 1% kojic acid (positive control) were repeatedly applied topically on the surface of the reconstructed skin for 15 days. […] Photographs of skin specimen taken after 15 days of the experiment show significant dose-dependent whitening effects on melanocytes, which appear on photographs as dark dendritic cells.

[2] = ORAC 5.0 antioxidant capacity; conditions: Trolox reference standard
Excerpt: Table 5 lists representative novel 1,6-dienes analogs of Formula I-III which are useful as anti-oxidant. ORAC 5.0 consists of five types of ORAC assays that evaluate the antioxidant capacity of material against five primary reactive oxygen species (ROSs, commonly called “oxygen radicals”) found in humans: peroxyl radical, hydroxyl radical, superoxide anion, singlet oxygen, and […]. Trolox is used as reference standard, and the results are expressed as μ mole Trolex equivalency per gram (or milliliter) of a tested material.

Structure (SMILES)	significant whitening of melanocytes observed as early as [1] [days]	alterations of cell morphology [1]	whitening effects on skin melanocytes [1]	whitening effects on melanocytes [1]	ORAC [2] [μ mole TE/gram]	toxicity on reconstructed skin [1]
CC(C)=CCCC(C)=Cc1ccc(O)cc1 (mixture of isomers) [Compound 1, (E/Z)-4-(2,6-dimethylhepta-1,5-dienyl)phenol]	3	without causing any detectable alterations	significant whitening effects	significant whitening effects		
CC(C)=CCC/C(C)=C/c1cc(O)cc(O)c1 [Compound 4, (E/Z)-5-(2,6-dimethylhepta-1,5-dienyl)benzene-1,3-diol]				significant whitening effects	22580	some toxicity
CC(C)=CCCC(C)/C=C/c1ccc(O)cc1 (stereo not shown) [Compound 5, (E)-4-(3,7-dimethylocta-1,6-dienyl)phenol]					37643	
CC(C)=CCCC(C)/C=C/c1ccc(O)cc1O (stereo not shown) [Compound 6, (E)-4-(3,7-dimethylocta-1,6-dienyl) benzene-1,3-diol]	3	without causing any detectable alterations	significant whitening effects	significant whitening effects	45869	
CC(C)=CCCC(C)/C=C/c1cc(O)cc(O)c1 (stereo not shown) [Compound 7, (E)-5-(3,7-dimethylocta-1,6-dienyl) benzene-1,3-diol]				significant whitening effects	18196	some toxicity
CC(C)=CCCC(C)C/C=C\c1cc(O)cc(O)c1 (stereo not shown) [Compound 15, (Z)-5-(4,8-dimethylnona-1,7-dienyl) benzene-1,3-diol]				significant whitening effects	11951	some toxicity
